Experimental data taken from PubChem BioAssay AID1581.
Results filed as inconclusive are left out.

Each molecule was assayed against PAR-4 (PAWR) - atypical PKC interaction (assay: PAR4-aPKC binding disruptors (AID 1581)). Conditions: PAR4-aPKC protein interaction assay, normalized signal.
Work on C=Cc1c(C)c2cc3[nH]c(cc4nc(cc5nc(cc1[nH]2)C(C)=C5CCC(=O)O)C(CCC(=O)O)=C4C)c(C)c3C=C yielded an EC50 of 14 µM. O=c1c(O)c(-c2ccc(O)cc2O)oc2cc(O)cc(O)c12 showed an EC50 of 10 µM. Work on CO[C@@]1(NC(=O)C(C(=O)O)c2ccc(O)cc2)C(=O)N2C(C(=O)O)=C(CSc3nnnn3C)CO[C@@H]21 (some centres not stated) yielded an EC50 of 11 µM. NC[C@H](O)c1ccc(O)c(O)c1 showed an EC50 of 29 µM. For O=C1C=CC(=O)c2c(O)cccc21, the EC50 was 18 µM. Work on O=c1c(O)cc2c(O)oc3c(=O)c(O)cc4c3c2c1CC=4O yielded an EC50 of 21 µM. In the case of N[C@@H](Cc1ccc(O)c(O)c1)C(=O)O, the EC50 is reported as 13 µM.
